Experimental data as given in patent publication US5866570A, “Treatment of vascular leakage and related syndrome such as septic shock by administration of metalloproteinase inhibitors” (Wisconsin Alumni Research Foundation, priority 1994, dated 1999).
In brackets after ≈: the same amount, converted by molar mass. Read-outs that look alike come from different tables or passages of the source.

Assays:
[1] = target: T1, recombinant human 72 kD type IV collagenase (Oncologix), APMA activated (Homo sapiens, UniProt P08253); test: gelatinase assay, Example 11; format: biochemical
T1 construct: purchased Oncologix
T1 sequence (P08253 110-660): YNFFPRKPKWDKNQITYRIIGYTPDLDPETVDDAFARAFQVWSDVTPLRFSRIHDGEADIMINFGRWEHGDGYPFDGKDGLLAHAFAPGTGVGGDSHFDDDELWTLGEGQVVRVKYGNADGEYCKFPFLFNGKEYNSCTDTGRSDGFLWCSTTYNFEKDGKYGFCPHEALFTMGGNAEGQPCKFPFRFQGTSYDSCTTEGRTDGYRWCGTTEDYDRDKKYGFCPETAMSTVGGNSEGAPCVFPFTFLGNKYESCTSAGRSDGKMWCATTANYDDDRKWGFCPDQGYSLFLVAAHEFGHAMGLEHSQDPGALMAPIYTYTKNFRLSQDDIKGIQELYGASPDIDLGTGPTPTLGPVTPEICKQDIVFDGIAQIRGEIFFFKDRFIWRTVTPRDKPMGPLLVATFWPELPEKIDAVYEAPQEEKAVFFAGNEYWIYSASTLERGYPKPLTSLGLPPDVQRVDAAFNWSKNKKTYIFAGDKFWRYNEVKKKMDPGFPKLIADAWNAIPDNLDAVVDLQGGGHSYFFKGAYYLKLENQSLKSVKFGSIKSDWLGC
Protocol: NET-660 Collagen (Rat Type I), N-[Propionate-2-3-^3 H] Propionylated (NEN Dupont) with a specific activity of 0.4 mCi/mg, rat type I Collagen (Sigma), P-aminophenylmercuric acetate, APMA (Sigma), recombinant human 72 kD type IV collagenase (Oncologix) with a specific activity of at least 1000 μg collagen digested/hour/μg enzyme, collagenase buffer (50 mM Tris-HCl, 5 mM CaCl2, 200 mM NaCl, 0.02% Brij-35, pH 7.6), bovine serum albumin (BSA), 250 mM EDTA, and 10% TCA+0.7% tannic acid. The substrate is prepared by mixing the ^3 H collagen with the cold collagen at a 2/3 ratio and diluting in the collagenase buffer. The final assay concentration of the ^3 H collagen is 1% or between 20,000 to 40,000 cpm. Inhibitors are prepared just prior to use by dissolving in DMSO (final assay concentration<1%) or collagenase buffer.
The 72 kD collagenase enzyme is activated with 0.5 mM APMA for 30 min. at 37° C. and 10 ng of enzyme per assay is used. Inhibitors are preincubated with activated enzyme for 2 hours at 37° C. in collagenase buffer. Substrate is then added to enzyme inhibitor mix and the assay is run for 20 min at 37° C. […] Undigested substrate is precipitated with the TCA/tannic acid solution and soluble counts are determined in a scintillation counter.

[2] = target: T2, E. coli recombinant human 72 kD collagenase type IV (MMP-2), pAPMA activated (Homo sapiens, UniProt P08253); test: gelatinase assay (3H-gelatin degradation), Example 9; format: biochemical; settings: 100 ng activated enzyme, 4 hrs preincubation with inhibitor at 37° C., 3H-gelatin substrate; read-out: IC50, inhibition of collagenase type IV gelatinase activity
T2 construct: made in house; host or cells: E. coli
T2 sequence (P08253 110-660): T1 sequence (P08253 110-660)
Excerpt: Type IV collagenases are highly efficient in digesting gelatin. Inhibition of the gelatinase activity of human recombinant collagenase type IV was used as an initial assay for testing the bis(dioxopiperazine)s. The recombinant 72 kD collagenase IV used in the gelatinase assays was made in E. coli from a cDNA insert obtained from Dr. William Stetler-Stevenson (NCI). The protein runs at 72 kD on SDS-PAGE, has gelatinolytic activity in zymogram, is activated by pAPMA, is precipitated by a monoclonal anti-peptide antibody to the pro-region of the 72 kD enzyme, and is inhibited by TIMP-2. Rat tail ^3 H-collagen I (Dupont-NEN) is denatured to become gelatin by heating at 60° C. for 20 min. E. coli recombinant human 72 kD collagenase type IV is activated by incubation with 1 mM pAPMA for 1 hr. at 37° C. 100 ng of activated enzyme is added to each tube containing 50 mM Tris-HCl pH 7.5, 5 mM CaCl2 and 0.005% Brij-35 and pre-incubated with inhibitor or solvent control for 4 hrs. at 37° C. in a total of 25 μl. 10,000 cpm of ^3 H-gelatin substrate in 30 μl is added (final volume of 55 μl per sample) and the reaction mixture is incubated at 37° C. for 2 to 16 hrs. […] Enzyme activity is calculated from the radioactivity in the supernatant and activity of the compounds expressed as percent solvent control.

S180 tumors = settings: cited from earlier work
[3] = at 25° C.; cited from earlier work

| Structure (SMILES) | IC50 ([1]; 10 ng enzyme, 2 hours preincubation at 37° C., 20 min assay, 3H collagen substrate, read-out: IC50 for inhibition of the 72 kD collagenase type IV) | IC50 [2] | inhibition of S180 tumors (S180 tumors; 5 doses at 30 mg/kg) | calculated ratio of maximum tolerated dose to the dose required for 90% inhibition of S180 tumor growth (S180 tumors; therapeutic index in vivo) | IC50 [1] | solubility in water [3] |
| --- | --- | --- | --- | --- | --- | --- |
| CC1(C)O[C@H]2C[C@H](N3CC(=O)NC(=O)C3)[C@@H](N3CC(=O)NC(=O)C3)C[C@@H]2O1 (relative stereo) [Compound 80, (3aα, 5β, 6α, 7aβ)-4,4'-(hexahydro-2,2-dimethyl-1,3-benzodioxole-5,6-diyl)bis(2,6-piperazinedione)] | 1.8 µM | 8 µM |  |  |  |  |
| CC(CN1CC(=O)NC(=O)C1)N1CC(=O)NC(=O)C1 (stereo not drawn) [razoxane] |  |  | 93% | 9.8 | 44 µM | 3000 µg/mL (≈ 11.2 mM) |
